The nature of the data set: TGA of the product prepared in example 6. Format: physicochemical. To be noted: up to 150° C. The source says: The product prepared in example 6 was investigated by TGA.

On to `Cn1nc(C(F)(F)C(F)(F)F)c(C(F)(F)F)c1-n1cc(-c2ccc(Cl)c(C(=O)NC3(C#N)CC3)c2)cn1` [example 6, 2-chloro-N-(1-cyanocyclopropyl)-5-[2′-methyl-5′-(pentafluoroethyl)-4′-(trifluoromethyl)-2′H-1,3′-bipyrazol-4-yl]benzamide], for which the “loss of mass (TGA)” value was “no loss of mass”.

The values above are taken from patent publication US12522585B2, “Method for preparing 2-chloro-n-(1-cyanocyclopropyl)-5-[2′-methyl-5′-(pentafluoroethyl)-4′-(trifluoromethyl)-2′h-1,3′-bipyrazol-4-yl]benzamide” ([…], priority 2020, dated 2026).
